This is an account of results in ChEMBL document CHEMBL5465560, “Selectivity Literature for EUbOPEN Chemogenomic Library” (2024).

Test [1] addresses T1, Serine/threonine-protein kinase D3 (Homo sapiens) (UniProt O94806).
T1 sequence (whole entry): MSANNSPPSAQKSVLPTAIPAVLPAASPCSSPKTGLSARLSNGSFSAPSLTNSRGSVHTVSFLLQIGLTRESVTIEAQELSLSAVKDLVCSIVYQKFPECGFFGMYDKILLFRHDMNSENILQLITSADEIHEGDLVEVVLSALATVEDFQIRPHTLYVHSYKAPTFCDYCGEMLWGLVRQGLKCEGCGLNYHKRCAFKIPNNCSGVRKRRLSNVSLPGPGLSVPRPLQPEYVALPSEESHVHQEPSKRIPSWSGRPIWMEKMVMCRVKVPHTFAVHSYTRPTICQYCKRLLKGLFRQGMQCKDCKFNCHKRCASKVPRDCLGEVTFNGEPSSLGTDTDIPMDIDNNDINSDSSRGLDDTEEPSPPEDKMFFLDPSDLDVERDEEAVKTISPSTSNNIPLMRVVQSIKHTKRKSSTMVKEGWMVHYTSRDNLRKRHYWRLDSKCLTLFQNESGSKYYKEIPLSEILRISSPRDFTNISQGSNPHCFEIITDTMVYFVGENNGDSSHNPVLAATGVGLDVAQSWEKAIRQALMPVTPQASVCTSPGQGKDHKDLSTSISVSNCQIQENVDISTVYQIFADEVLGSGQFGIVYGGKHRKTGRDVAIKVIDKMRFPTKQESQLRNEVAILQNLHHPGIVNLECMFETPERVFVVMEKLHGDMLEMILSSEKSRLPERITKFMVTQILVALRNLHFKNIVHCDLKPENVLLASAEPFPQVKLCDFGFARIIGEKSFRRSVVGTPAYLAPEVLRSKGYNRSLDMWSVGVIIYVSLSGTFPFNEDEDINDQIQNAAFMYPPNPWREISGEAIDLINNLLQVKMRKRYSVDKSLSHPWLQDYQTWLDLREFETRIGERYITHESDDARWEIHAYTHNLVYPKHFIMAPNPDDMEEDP
The experiment in a line: Selectivity interaction (KinomeScan (DiscoverX)) EUB0000695a PRKD3. The following applies: at 100 nM.

In test [2] the target is Protein kinase C theta type (Homo sapiens, UniProt Q04759). The test can be described thus: Selectivity interaction (Kinase screening (Upstate/Millipore)) EUB0000604a PRKCQ.
Chain of Protein kinase C theta type (Q04759 whole entry, looked up): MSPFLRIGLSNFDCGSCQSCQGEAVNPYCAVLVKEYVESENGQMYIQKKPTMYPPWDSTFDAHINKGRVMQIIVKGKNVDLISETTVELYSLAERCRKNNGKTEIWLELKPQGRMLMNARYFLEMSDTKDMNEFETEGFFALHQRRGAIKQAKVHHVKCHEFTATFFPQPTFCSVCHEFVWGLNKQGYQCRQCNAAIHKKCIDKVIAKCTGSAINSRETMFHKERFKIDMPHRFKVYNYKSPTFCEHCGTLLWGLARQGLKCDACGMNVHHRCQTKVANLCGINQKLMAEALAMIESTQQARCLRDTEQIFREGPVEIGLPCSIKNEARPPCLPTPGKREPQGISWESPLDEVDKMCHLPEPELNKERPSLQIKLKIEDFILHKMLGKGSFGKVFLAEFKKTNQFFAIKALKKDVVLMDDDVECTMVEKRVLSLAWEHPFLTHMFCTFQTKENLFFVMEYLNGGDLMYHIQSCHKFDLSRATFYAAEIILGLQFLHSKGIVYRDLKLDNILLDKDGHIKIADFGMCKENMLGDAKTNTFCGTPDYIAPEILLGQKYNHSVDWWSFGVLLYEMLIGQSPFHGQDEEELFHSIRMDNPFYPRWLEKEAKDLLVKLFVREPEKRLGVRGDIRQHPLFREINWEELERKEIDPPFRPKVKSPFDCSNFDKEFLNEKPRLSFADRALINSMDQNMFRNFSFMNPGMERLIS
Test [3] addresses T2, Mitogen-activated protein kinase kinase kinase kinase 3 (Homo sapiens) (UniProt Q8IVH8).
T2 sequence (whole entry): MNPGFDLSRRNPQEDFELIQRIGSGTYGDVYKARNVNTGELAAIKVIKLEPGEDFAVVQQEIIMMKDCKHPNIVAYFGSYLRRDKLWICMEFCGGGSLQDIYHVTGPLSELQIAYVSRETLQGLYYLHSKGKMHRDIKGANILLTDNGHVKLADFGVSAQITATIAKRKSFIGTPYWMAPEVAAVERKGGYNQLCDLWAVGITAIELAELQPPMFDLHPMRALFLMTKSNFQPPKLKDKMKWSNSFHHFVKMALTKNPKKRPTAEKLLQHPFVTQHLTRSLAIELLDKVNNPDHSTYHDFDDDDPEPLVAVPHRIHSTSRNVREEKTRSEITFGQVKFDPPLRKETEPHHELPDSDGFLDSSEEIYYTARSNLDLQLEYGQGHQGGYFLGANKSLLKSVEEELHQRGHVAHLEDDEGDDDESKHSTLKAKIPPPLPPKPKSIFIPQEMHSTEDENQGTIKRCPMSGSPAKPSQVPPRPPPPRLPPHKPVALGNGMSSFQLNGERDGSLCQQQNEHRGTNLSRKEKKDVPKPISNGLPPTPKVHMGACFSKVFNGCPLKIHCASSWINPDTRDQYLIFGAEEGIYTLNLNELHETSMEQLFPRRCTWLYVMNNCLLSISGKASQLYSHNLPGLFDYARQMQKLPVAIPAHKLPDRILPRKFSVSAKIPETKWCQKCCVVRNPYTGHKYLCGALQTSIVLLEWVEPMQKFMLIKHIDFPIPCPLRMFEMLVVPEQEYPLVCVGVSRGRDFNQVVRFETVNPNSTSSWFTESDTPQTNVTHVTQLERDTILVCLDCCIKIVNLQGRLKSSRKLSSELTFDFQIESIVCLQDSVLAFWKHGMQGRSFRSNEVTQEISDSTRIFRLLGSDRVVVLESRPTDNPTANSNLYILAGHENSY
The test can be described thus: Selectivity interaction (KinomeScan (DiscoverX)) EUB0000045b MAP4K3.

The target in test [4] is T3, Serine/threonine-protein kinase NLK (Homo sapiens) (UniProt Q9UBE8).
T3 sequence (whole entry): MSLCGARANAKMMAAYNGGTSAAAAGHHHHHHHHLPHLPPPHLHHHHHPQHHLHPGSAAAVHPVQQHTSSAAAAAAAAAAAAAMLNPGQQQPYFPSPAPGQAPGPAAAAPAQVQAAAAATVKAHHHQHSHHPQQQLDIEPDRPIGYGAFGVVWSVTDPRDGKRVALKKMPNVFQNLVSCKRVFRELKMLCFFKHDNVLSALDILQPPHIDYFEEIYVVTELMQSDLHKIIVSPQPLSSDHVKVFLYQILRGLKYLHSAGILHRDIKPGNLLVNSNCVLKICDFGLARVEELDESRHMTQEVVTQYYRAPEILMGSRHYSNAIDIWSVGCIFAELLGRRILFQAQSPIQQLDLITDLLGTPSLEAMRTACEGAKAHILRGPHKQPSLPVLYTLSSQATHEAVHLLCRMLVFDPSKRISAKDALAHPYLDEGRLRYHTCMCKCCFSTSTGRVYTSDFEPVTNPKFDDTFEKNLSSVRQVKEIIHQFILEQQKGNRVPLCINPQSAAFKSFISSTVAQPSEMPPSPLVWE
The experiment in a line: Selectivity interaction (KinomeScan (DiscoverX)) EUB0000607a NLK. Particulars: at 10 µM.

Test [5] concerns the target Casein kinase I isoform delta (Homo sapiens, UniProt P48730). The test can be described thus: Selectivity interaction (ActivX KiNativ screen (kinase selectivity in THP-1 cell lysates)) EUB0000639a CSNK1D. The test is classed as subcellular. Particulars: lysate.
In test [6] the target is Tyrosine-protein kinase Fgr (Homo sapiens) (UniProt P09769). The experiment in a line: Selectivity interaction (ActivX KiNativ screen (ex vivo kinase selectivity in human PBMCs)) EUB0001619a FGR. The test is classed as cell-based. The following applies: PBMC, at 1 µM.
Chain of Tyrosine-protein kinase Fgr (Homo sapiens) (P09769 2-529 limits assumed): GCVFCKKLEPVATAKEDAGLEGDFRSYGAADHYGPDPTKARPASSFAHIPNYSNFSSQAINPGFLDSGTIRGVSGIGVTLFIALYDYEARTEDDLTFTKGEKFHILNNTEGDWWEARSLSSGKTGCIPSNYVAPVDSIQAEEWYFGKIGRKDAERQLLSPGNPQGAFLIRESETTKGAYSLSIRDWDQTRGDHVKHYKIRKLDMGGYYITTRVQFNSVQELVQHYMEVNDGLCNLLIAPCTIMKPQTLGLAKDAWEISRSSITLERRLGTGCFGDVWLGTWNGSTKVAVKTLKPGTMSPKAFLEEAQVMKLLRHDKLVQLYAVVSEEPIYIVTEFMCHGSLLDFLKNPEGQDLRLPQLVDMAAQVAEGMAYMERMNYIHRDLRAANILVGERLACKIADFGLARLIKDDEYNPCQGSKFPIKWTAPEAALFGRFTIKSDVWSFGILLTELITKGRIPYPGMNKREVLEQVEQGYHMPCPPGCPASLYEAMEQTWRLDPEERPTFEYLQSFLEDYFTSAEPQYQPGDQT

Chain of Casein kinase I isoform delta (P48730 whole entry, looked up, canonical isoform): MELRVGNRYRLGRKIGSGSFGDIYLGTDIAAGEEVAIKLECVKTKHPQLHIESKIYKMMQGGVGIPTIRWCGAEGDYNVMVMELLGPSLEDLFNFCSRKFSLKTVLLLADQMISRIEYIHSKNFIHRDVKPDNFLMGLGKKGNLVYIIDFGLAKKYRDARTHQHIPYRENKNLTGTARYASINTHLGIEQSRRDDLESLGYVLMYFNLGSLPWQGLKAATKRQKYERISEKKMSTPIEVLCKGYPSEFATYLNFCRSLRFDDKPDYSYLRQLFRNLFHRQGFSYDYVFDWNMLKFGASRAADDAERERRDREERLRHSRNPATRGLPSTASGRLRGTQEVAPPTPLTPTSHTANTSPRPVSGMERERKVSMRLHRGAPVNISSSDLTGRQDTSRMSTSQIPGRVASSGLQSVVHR

Consider `Cc1cc(F)c(C(=O)Nc2cccc(-c3nncn3C(C)C)n2)cc1-n1cnc(C2CC2)c1`, for which the % of control in test [1] was found to be 78%.
Regarding `Cc1cnc(Nc2ccc(F)cc2Cl)nc1-c1c[nH]c(C(=O)N[C@H](CO)c2cccc(Cl)c2)c1`, in test [2], the % of inhibition worked out at 17%.
On to `C=CC(=O)Nc1cc(-n2c(=O)ccc3cnc4ccc(-c5ccc(NS(C)(=O)=O)cc5)cc4c32)ccc1C`, for which the % of control in test [3] (at 1 µM) and in test [3] (at 10 µM) was 100% each time.
The compound `CNC(=O)Nc1ccc(-c2nc(N3CC4CCC(C3)O4)c3cnn(C4CCC5(CC4)OCCO5)c3n2)cc1` had a % of control in test [4] of 85%.
For `CC[C@@H]1[C@H](F)C(=O)N[C@@H]1COc1nccc2cc(C(N)=O)c(OC)cc12` [ZIMLOVISERTIB], the % of inhibition in test [5] (at 0.01 µM) was -6.6%; in test [5] (at 0.04 µM), 20.3%; in test [5] (at 0.2 µM) it was 53%; in test [5] (at 1 µM), 77.8%; in test [5] (at 5 µM), 94.8%.
Turning to `N#Cc1cccc(-c2c[nH]c3ncnc(N4CCOCC4)c23)c1`, in test [6], the % of inhibition is -34%.
